Source: ChEMBL document CHEMBL4118050, “Gardenifolins A-H, Scalemic Neolignans from Gardenia ternifolia: Chiral Resolution, Configurational Assignment, and Cytotoxic Activities against the HeLa Cancer Cell Line” (J Nat Prod, 2017)
pIC50: −log10 of the molar value. Calls of active or inactive are those of the source. The rule behind the calls is not given here.

Assays:
Type in all cases: functional, cell-based
HeLa [1] = experiment: Cytotoxicity against human HeLa cells assessed as reduction in cell viability after 72 hrs by WST8 assay
HeLa [2] = experiment: Induction of apoptosis in human HeLa cells assessed as nuclear fragmentation at 25 uM after 72 hrs by acridine orange/Hoechst 33342 staining based microscopic method
HeLa [3] = experiment: Induction of apoptosis in human HeLa cells assessed as loss of cytoplasmic and nuclear integrity at 25 uM after 72 hrs by acridine orange/Hoechst 33342 staining based microscopic method

Row | Structure (SMILES) | pIC50 (HeLa [1]) | Activity (HeLa [2]) | Activity (HeLa [3])
1 | COC(=O)/C=C\c1cc(OC)c2c(c1)[C@H](CO)[C@H](c1ccc(O)c(OC)c1)O2 | 3.99 |  | 
2 | COC(=O)/C=C\c1cc(OC)c2c(c1)[C@@H](CO)[C@@H](c1ccc(O)c(OC)c1)O2 | 4.49 |  | 
3 | COC(=O)/C=C/c1cc(OC)c2c(c1)[C@H](CO)[C@H](c1ccc(O)c(OC)c1)O2 | 4.02 |  | 
4 | COC(=O)/C=C/c1cc(OC)c2c(c1)[C@@H](CO)[C@H](c1ccc(O)c(OC)c1)O2 | 4.68 | Active | Active
5 | COC(=O)/C=C\c1cc(OC)c2c(c1)[C@H](CO)[C@@H](c1ccc(O)c(OC)c1)O2 | 4.10 |  | 
6 | COC(=O)/C=C/c1cc(OC)c2c(c1)[C@H](CO)[C@@H](c1ccc(O)c(OC)c1)O2 | 4.05 |  | 
7 | COC(=O)/C=C\c1cc(OC)c2c(c1)[C@@H](CO)[C@H](c1ccc(O)c(OC)c1)O2 | 4.06 |  | 
8 | COC(=O)/C=C/c1cc(OC)c2c(c1)[C@@H](CO)[C@@H](c1ccc(O)c(OC)c1)O2 | 3.98 |  | 
9 | O=c1[nH]cc(F)c(=O)[nH]1 [FLUOROURACIL] | 4.86 |  | 
